Reference: ChEMBL document CHEMBL3286137, “Design, synthesis and structure-activity relationships of novel 4-phenoxyquinoline derivatives containing pyridazinone moiety as potential antitumor agents” (Eur J Med Chem, 2014)

Columns and labels:
HT-29 = experiment: cells; conditions: Homo sapiens, HT-29, 72 h
cells [1] = conditions: Homo sapiens, NCI-H460, 72 h
A549 = experiment: cells; conditions: Homo sapiens, A549, 72 h
cells [2] = conditions: Homo sapiens, MKN-45, 72 h
[3] = Cytotoxicity against human U87MG cells assessed as inhibition of cell growth after 72 hrs by MTT assay; assay type: functional, cell-based, U-87MG ATCC; conditions: U-87 MG

SMILES	IC50 (HT-29) [nM]	IC50 (cells [1]) [nM]	IC50 (A549) [nM]	IC50 (cells [2]) [nM]	IC50 [3] [nM]
COc1cc2c(Oc3ccc(NC(=O)c4nn(-c5ccc(F)c(F)c5)c(=O)cc4C)cc3F)ccnc2cc1OCCCN1CCOCC1	160	390	320	90	–
COc1cc2c(Oc3ccc(NC(=O)c4nn(-c5ccc(Cl)cc5)c(=O)cc4C)cc3F)ccnc2cc1OCCCN1CCC(C)CC1	180	370	210	150	1350
COc1cc2c(Oc3ccc(NC(=O)c4nn(-c5ccc(Cl)cc5Cl)c(=O)cc4C)cc3F)ccnc2cc1OCCCN1CCC(C)CC1	170	250	200	120	–
COc1cc2c(Oc3ccc(NC(=O)c4nn(-c5ccccc5)c(=O)cc4C)cc3F)ccnc2cc1OCCCN1CCN(C)CC1	270	360	350	130	2120
COc1cc2c(Oc3ccc(NC(=O)c4nn(-c5ccccc5C(F)(F)F)c(=O)cc4C)cc3F)ccnc2cc1OCCCN1CCN(C)CC1	170	240	170	40	1170
COc1cc2c(Oc3ccc(NC(=O)c4nn(-c5ccccc5OC(F)(F)F)c(=O)cc4C)cc3F)ccnc2cc1OCCCN1CCN(C)CC1	180	260	130	100	1440
COc1cc2c(Oc3ccc(NC(=O)c4nn(-c5cccc(F)c5)c(=O)cc4C)cc3F)ccnc2cc1OCCCN1CCN(C)CC1	250	260	150	120	1590
COc1ccc(-n2nc(C(=O)Nc3ccc(Oc4ccnc5cc(OCCCN6CCN(C)CC6)c(OC)cc45)c(F)c3)c(C)cc2=O)cc1	3520	3660	2200	1230	–
COc1cc2c(Oc3ccc(NC(=O)c4nn(-c5ccc(Cl)cc5)c(=O)cc4C)cc3F)ccnc2cc1OCCCN1CCN(C)CC1	320	440	270	40	1560
COc1cc2c(Oc3ccc(NC(=O)c4nn(-c5ccc(F)c(F)c5)c(=O)cc4C)cc3F)ccnc2cc1OCCCN1CCN(C)CC1	170	190	130	120	–
COc1cc2c(Oc3ccc(NC(=O)c4nn(-c5ccccc5OC(F)(F)F)c(=O)cc4C)cc3F)ccnc2cc1OCCCN1CCCC1	180	210	140	60	1280
COc1cc2c(Oc3ccc(NC(=O)c4nn(-c5cccc(F)c5)c(=O)cc4C)cc3F)ccnc2cc1OCCCN1CCCC1	250	280	170	120	1700
COc1cc2c(Oc3ccc(NC(=O)c4nn(-c5ccc(Cl)cc5)c(=O)cc4C)cc3F)ccnc2cc1OCCCN1CCCC1	260	360	230	150	1430
COc1cc2c(Oc3ccc(NC(=O)c4nn(-c5ccc(F)c(F)c5)c(=O)cc4C)cc3F)ccnc2cc1OCCCN1CCCC1	150	170	220	80	1400
COc1cc2c(Oc3ccc(NC(=O)c4nn(-c5ccccc5)c(=O)cc4C)cc3F)ccnc2cc1OCCCN1CCCCC1	160	280	150	160	1370
COc1cc2c(Oc3ccc(NC(=O)c4nn(-c5ccccc5C)c(=O)cc4C)cc3F)ccnc2cc1OCCCN1CCCCC1	2810	3220	1920	1310	2500

SMILES	IC50 (HT-29) [nM]	IC50 (cells [1]) [nM]	IC50 (A549) [nM]	IC50 (cells [2]) [nM]	IC50 [3] [nM]
COc1cc2c(Oc3ccc(NC(=O)c4nn(-c5ccccc5C(F)(F)F)c(=O)cc4C)cc3F)ccnc2cc1OCCCN1CCCCC1	170	210	140	90	1150
COc1cc2c(Oc3ccc(NC(=O)c4nn(-c5ccccc5OC(F)(F)F)c(=O)cc4C)cc3F)ccnc2cc1OCCCN1CCCCC1	190	230	120	40	1300
COc1cc2c(Oc3ccc(NC(=O)c4nn(-c5cccc(F)c5)c(=O)cc4C)cc3F)ccnc2cc1OCCCN1CCCCC1	290	360	250	130	1500
COc1ccc(-n2nc(C(=O)Nc3ccc(Oc4ccnc5cc(OCCCN6CCCCC6)c(OC)cc45)c(F)c3)c(C)cc2=O)cc1	3200	3730	1500	330	1800
COc1cc2c(Oc3ccc(NC(=O)c4nn(-c5ccc(Cl)cc5)c(=O)cc4C)cc3F)ccnc2cc1OCCCN1CCCCC1	360	460	320	230	1400
COc1cc2c(Oc3ccc(NC(=O)c4nn(-c5ccc(Cl)cc5Cl)c(=O)cc4C)cc3F)ccnc2cc1OCCCN1CCCCC1	290	390	220	80	1800
COc1cc2c(Oc3ccc(NC(=O)c4nn(-c5ccccc5C)c(=O)cc4C)cc3F)ccnc2cc1OCCCN1CCC(C)CC1	2810	2260	1460	1290	2240
COc1cc2c(Oc3ccc(NC(=O)c4nn(-c5ccccc5C(F)(F)F)c(=O)cc4C)cc3F)ccnc2cc1OCCCN1CCC(C)CC1	180	200	160	60	1120
COc1cc2c(Oc3ccc(NC(=O)c4nn(-c5cccc(F)c5)c(=O)cc4C)cc3F)ccnc2cc1OCCCN1CCC(C)CC1	300	250	250	140	1800
COc1cc2c(Oc3ccc(NC(=O)c4nn(-c5ccccc5)c(=O)cc4C)cc3F)ccnc2cc1OCCCN1CCOCC1	350	450	720	110	1600
COc1cc2c(Oc3ccc(NC(=O)c4nn(-c5ccccc5C)c(=O)cc4C)cc3F)ccnc2cc1OCCCN1CCOCC1	1010	1380	530	270	2000
COc1cc2c(Oc3ccc(NC(=O)c4nn(-c5ccccc5OC(F)(F)F)c(=O)cc4C)cc3F)ccnc2cc1OCCCN1CCOCC1	170	200	120	90	1300
COc1cc2c(Oc3ccc(NC(=O)c4nn(-c5cccc(F)c5)c(=O)cc4C)cc3F)ccnc2cc1OCCCN1CCOCC1	270	290	550	110	1980
COc1ccc(-n2nc(C(=O)Nc3ccc(Oc4ccnc5cc(OCCCN6CCOCC6)c(OC)cc45)c(F)c3)c(C)cc2=O)cc1	1230	1770	1500	260	–
COc1cc2c(Oc3ccc(NC(=O)c4nn(-c5ccc(Cl)cc5)c(=O)cc4C)cc3F)ccnc2cc1OCCCN1CCOCC1	260	380	330	70	1970
